The experiment concerns the target DNA polymerase I (Escherichia coli) (UniProt P00582). The experiment is described as follows: Compound was evaluated for its inhibitory activity against Klenow enzyme.

Molecules are shown by their SMILES.

Chain of DNA polymerase I (Escherichia coli) (P00582 whole entry, looked up): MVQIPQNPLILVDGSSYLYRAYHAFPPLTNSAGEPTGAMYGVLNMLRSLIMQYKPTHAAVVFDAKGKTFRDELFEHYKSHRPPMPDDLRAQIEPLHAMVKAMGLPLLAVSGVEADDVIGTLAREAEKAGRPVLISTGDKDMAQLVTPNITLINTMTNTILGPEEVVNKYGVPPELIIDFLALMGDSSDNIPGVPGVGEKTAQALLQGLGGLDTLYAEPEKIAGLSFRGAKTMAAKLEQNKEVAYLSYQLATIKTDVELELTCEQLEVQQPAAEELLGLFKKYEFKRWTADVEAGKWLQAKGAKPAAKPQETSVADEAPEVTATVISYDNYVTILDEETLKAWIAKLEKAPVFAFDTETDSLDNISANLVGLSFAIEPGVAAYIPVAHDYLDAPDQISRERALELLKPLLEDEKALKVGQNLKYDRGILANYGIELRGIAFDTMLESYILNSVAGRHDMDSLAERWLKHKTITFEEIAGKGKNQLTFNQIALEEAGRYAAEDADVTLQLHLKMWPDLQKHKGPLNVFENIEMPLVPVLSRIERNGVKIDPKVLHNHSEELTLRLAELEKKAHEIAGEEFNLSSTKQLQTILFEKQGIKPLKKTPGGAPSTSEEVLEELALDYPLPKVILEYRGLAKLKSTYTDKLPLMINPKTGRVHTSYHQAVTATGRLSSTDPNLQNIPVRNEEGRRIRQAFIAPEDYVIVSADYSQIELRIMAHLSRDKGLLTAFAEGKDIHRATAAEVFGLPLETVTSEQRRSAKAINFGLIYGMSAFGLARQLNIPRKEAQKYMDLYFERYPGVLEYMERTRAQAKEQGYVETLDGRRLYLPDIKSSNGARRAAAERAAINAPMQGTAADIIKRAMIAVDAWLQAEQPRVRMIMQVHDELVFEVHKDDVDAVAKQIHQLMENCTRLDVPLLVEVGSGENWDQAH

`O=C(Cc1cn(CCn2ccc3cc(Cl)ccc32)c2ccccc12)NCCCCCCCCCCCCOP(=O)(O)Oc1cccc(Cl)c1` [Phosphoric acid 12-(2-{1-[2-(5-chloro-indol-1-yl)-ethyl]-1H-indol-3-yl}-acetylamino)-dodecyl ester 3-chloro-phenyl ester; compound with triethyl-amine]: the IC50 amounted to 70 µM. Then `O=C(Cc1cn(CCn2ccc3cc(Cl)ccc32)c2ccccc12)NCCCCCCCCCCCCOP(=O)(O)OC1CCCCC1` [Phosphoric acid 12-(2-{1-[2-(5-chloro-indol-1-yl)-ethyl]-1H-indol-3-yl}-acetylamino)-dodecyl ester cyclohexyl ester; compound with triethyl-amine], with 101 µM; and `O=C(Cc1cn(CCn2ccc3cc(Cl)ccc32)c2ccccc12)NCCCCCCCCCCCCOP(=O)(O)Oc1ccccc1` [Phosphoric acid 12-(2-{1-[2-(5-chloro-indol-1-yl)-ethyl]-1H-indol-3-yl}-acetylamino)-dodecyl ester phenyl ester; compound with triethyl-amine], with 61 µM.

The IC50 is the midpoint of a concentration-inhibition curve. A high value points to a need for much substance.

These data come from BindingDB's records for doi:10.1016/s0960-894x(01)00002-6 (Kyushu University, 2001).
